The source of these data is patent US9988430B2, “Stable GLP-1 based GLP-1/glucagon receptor co-agonists” (Novo Nordisk A/S, priority 2014, dated 2018).

The EC50 is the concentration that produces a half-maximal response. A word on the IC50: it is the concentration that gives 50% inhibition.

*1 amine or outer side, *2 acyl side, *3 side chain or, on linkers, in order; H or OH if unused. Where a SMILES comes first, the peptide text is derived from it. Bridges are numbered along the chain shown (N, C = ends). Roman numbers before positions name the chains, in order. Side-chain parts run from the residue outwards. [ ]: non-standard residue; d: D form. The star is where a group is joined. C20 diacid = O=C(O)CCCCCCCCCCCCCCCCCCC(=O)*; C18 diacid = O=C(O)CCCCCCCCCCCCCCCCC(=O)*; γGlu = O=C(O)[C@H](CCC(=O)[*:2])N[*:1]; Desaminohistidyl = O=C(CCc1c[nH]cn1)*; Ac4c = NC1(C(=O)O)CCC1; AEEA = NCCOCCOCC(=O)O; Aib = CC(C)(N)C(=O)O

The target of test [1] is T1, human GLP-1 receptor (Homo sapiens, UniProt P43220).
T1 construct: expressed in transfected cells; host or cells: membranes of BHK cells, parent line BHKTS13, clone FCW467-12A
As to the kind of experiment: Assay (I)(a): GLP-1 receptor potency, CRE luciferase reporter gene assay in BHK cells. The test is classed as cell-based. The note with it: BHK cells expressing human GLP-1 receptor, read-out: EC50 GLP-1R. As to the method: Assay (I): GLP-1 and Glucagon Receptor Potency The purpose of this example was to test the activity or potency, of the GLP-1 derivatives of the invention, in vitro. The in vitro potency is the measure of human GLP-1 receptor (GLP-1R) or glucagon receptor (glucagonR) activation, respectively, in a whole cell assay. In vitro potency was determined by measuring the cellular response of human GLP-1 or glucagon receptor activation, respectively, in a reporter gene assay. The assay was performed in a BHK cell line that stably expresses either the human GLP-1 receptor or the human glucagon receptor and comprises the DNA for the cAMP response element (CRE) coupled to a promoter and the gene for firefly luciferase (CRE luciferase). […] When assay incubation was completed, the luciferase substrate (luciferin) was added and the enzyme converted luciferin to oxyluciferin and produces bioluminescence. The luminescence was measured as the readout for the assay. (a) GLP-1 Receptor Activation The cells used in this assay (clone FCW467-12A/KZ10-1) were BHK cells with BHKTS13 as a parent cell line. The cells were derived from a clone (FCW467-12A) that expresses the human GLP-1 receptor and were established by further transfection with CRE luciferase to obtain the current clone. The cells were cultured at 5% CO2 in DMEM medium with 10% FBS, 1×GlutaMAX, 1 mg/ml G418, 240 nM MTX (methotrexate) and 1% pen/strep (penicillin/streptomycin). They were aliquoted and stored in liquid nitrogen. Before each assay, an aliquot was taken up and washed three times in PBS before being suspended at the desired concentration in assay medium. For 96-well plates the suspension was made to give a final concentration of 5×10EE3 cells/well. The following chemicals were used in the assay: Pluronic F-68 (10%) (Gibco 2404), Ovalbumin (Sigma A5503), DMEM w/o phenol red (Gibco 11880-028), 1 M Hepes (Gibco 15630), Glutamax 100× (Gibco 35050) and steadylite plus (PerkinElmer 6016757). Assay Medium consisted of DMEM w/o phenol red, 10 mM Hepes, 1×GlutaMAX, 2% Ovalbumin and 0.2% Pluronic F-68. Cell stocks were thawed in a 37° C. water bath. Cells were washed three times in PBS. The cells were counted and adjusted to 5×10EE3 cells/50 μl (1×10EE5 cells/ml) in Assay Medium. A 50 μl aliquot of cells was transferred to each well in the assay plate. Stocks of the test compounds and reference compounds were diluted to a concentration of […] in Assay Medium. Compounds were diluted 10-fold to give the following concentrations: 2×10EE-6 M, 2×10EE-7 M, 2×10EE-8 M; 2×10EE-9 M, 2×10EE-10 M, 2×10EE-11 M, 2×10EE-12 M and 2×10EE-13 M. For each compound a blank assay medium control was also included. A 50 μl aliquot of compound or blank was transferred from the dilution plate to the assay plate. Compounds were tested at the following final concentrations: 1×10EE-6 M, 1×10EE-7 M, 1×10EE-8 M; 1×10EE-9 M, 1×10EE-10 M, 1×10EE-11 M and 1×10EE-12 M and 1×10EE-13 M. The assay plate was incubated for 3 h in a 5% CO2 incubator at 37° C. The assay plate was removed from the incubator and allowed to stand at room temperature for 15 min. A 100 μl aliquot of steadylite plus reagent was added to each well of the assay plate (reagent is light sensitive). Each assay plate was covered with aluminum foil to protect it from light and shaken for 30 min at room temperature. Each assay plate was read in a Perkin Elmer TopCount NXT instrument. The data from the TopCount instrument was transferred to GraphPad Prism software. The software performed a non-linear regression (log(agonist) vs response-Variable slope (four parameter)). EC50 values were calculated by the software and reported in pM.

Test [2] deals with T1, human GLP-1 receptor. Description: Assay (II)(a): GLP-1 receptor binding, [125I]GLP-1 displacement, SPA on BHK membranes. The note with it: displacement of [125I]GLP-1, membranes with human GLP-1 receptor; read-out: IC50 GLP-1R. The protocol: Assay (II): GLP-1 and Glucagon Receptor Binding The purpose of this assay is to test the in vitro receptor binding activity of the GLP-1 derivatives of the invention. (a) GLP-1 Receptor Binding The GLP-1 receptor (GLP-1R) binding is a measure of the affinity of a derivative for the human GLP-1 receptor. The GLP-1 receptor binding of each derivatives were determined with competitive binding, displacing [^125I]GLP-1 bound to GLP-1 receptors expressed in cell membranes associated with wheat germ agglutinin (WGA) scintillation proximity assay (SPA) beads. Each derivative was added in a series of concentrations to isolated membranes comprising the human GLP-1 receptor and displacement of the labelled radioligand was monitored. The receptor binding was reported as the concentration at which half of the labelled ligand is displaced from the receptor, the IC^50 value. The following chemicals were used in the assay: MEM w/o phenol red (Gibco 11880-028), Pen/strep (Invitrogen 15140-122), G418 (Invitrogen 10131-027), 1 M Hepes (Gibco 15630), EDTA (Invitrogen 15575-038), PBS (Invitrogen 14190-094), fetal calf serum (Invitrogen 16140-071), EGTA, MgCl2 (Merck 1.05832.1000), Tween 20 (Amresco 0850C335), SPA particles (wheat germ agglutinin (WGA) SPA beads, Perkin Elmer RPNQ0001), [125I]-GLP-1]-(7-36)NH2 (produced in-house), OptiPlate™-96 (Perkin Elmer). Buffer 1 consisted of 20 mM Na-HEPES plus 10 mM EDTA and pH was adjusted to 7.4. Buffer 2 consisted of 20 mM Na-HEPES plus 0.1 mM EDTA and pH was adjusted to 7.4. Assay buffer consisted of 50 mM HEPES supplemented with 5 mM EGTA, 5 mM MgCl2, 0.005% Tween 20 and pH was adjusted to 7.4. A 0.02% albumin stock consisted of HSA dissolved at 0.02% (w/v) in assay buffer. The cells used in this assay (clone FCW467-12A) were BHK cells with BHKTS13 as a parent cell line. The cells express the human GLP-1 receptor. The cells were grown at 5% CO2 in DMEM, 10% fetal calf serum, 1% Pen/Strep (Penicillin/Streptomycin) and 1.0 mg/ml of the selection marker G418. To make a membrane preparation the cells were grown to approximately 80% confluence. The cells were washed twice in phosphate-buffered saline and harvested. The cells were pelleted using a brief centrifugation and the cell pellet was kept on ice. The cell pellet was homogenised with ULTRA-THURRAX dispersing instrument for 20-30 seconds in a suitable amount of buffer 1 (e.g., 10 ml). The homogenate was centrifuged for 15 minutes. The pellet was re-suspended (homogenised) in 10 ml buffer 2 and centrifuged. This step was repeated once more. The resulting pellet was re-suspended in buffer 2 and the protein concentration was determined. The membranes were aliquoted and stored at minus 80° C. • 1. For the receptor binding assay 50 μl of the assay buffer was added to each well of an assay plate. • 2. Test compounds were serially diluted to give the following concentrations: 8×10EE-7 M, 8×10EE-8 M, 8×10EE-9 M, 8×10EE-10 M, 8×10EE-11 M, 8×10EE-12 M and 8×10EE-13 M. Twenty-five μl were added to appropriate wells in the assay plate. • 3. Cell membrane aliquots were thawed and diluted to their working concentration. Fifty μl were added to each well in the assay plate. • 4. WGA SPA beads were suspended in assay buffer at 20 mg/ml. The suspension was diluted to 10 mg/ml in assay buffer just prior to addition to the assay plate. Fifty μl were added to each well in the assay plate. • 5. The incubation was started by adding 25 μl of 480 pM solution of [125I]-GLP-1]-(7-36)NH2 to each well of the assay plate. A 25 μl aliquot was reserved for measuring total counts/well. • 6. The assay plate was incubated for 2 h at 30° C. • 7. The assay plate was centrifuged for 10 min. • 8. The assay plate was read in a Perkin Elmer TopCount NXT instrument. Calculations The data from the TopCount instrument were transferred to GraphPad Prism software. The software averaged the values for the replicates and performed a non-linear regression. IC50 values were calculated by the software and reported in nM. […]
A general note: Displacement assays read how much labelled ligand stays bound in the presence of the test substance.

T1 sequence (P43220 24-463): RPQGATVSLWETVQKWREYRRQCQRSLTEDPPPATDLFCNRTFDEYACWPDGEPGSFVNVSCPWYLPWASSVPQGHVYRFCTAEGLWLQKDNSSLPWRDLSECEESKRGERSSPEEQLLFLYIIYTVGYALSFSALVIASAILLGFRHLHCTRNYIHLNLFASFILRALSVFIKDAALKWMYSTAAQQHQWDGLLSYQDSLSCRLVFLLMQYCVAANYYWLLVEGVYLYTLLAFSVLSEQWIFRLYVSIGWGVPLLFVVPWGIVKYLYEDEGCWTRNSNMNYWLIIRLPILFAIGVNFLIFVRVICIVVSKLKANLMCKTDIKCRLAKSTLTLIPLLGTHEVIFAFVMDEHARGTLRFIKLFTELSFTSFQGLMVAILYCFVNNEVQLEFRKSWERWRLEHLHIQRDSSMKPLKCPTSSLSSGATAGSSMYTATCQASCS

As for `CC[C@H](C)[C@H](NC(=O)[C@H](Cc1ccccc1)NC(=O)[C@H](CCC(=O)O)NC(=O)[C@H](CCCNC(=N)N)NC(=O)[C@H](C)NC(=O)[C@H](C)NC(=O)[C@H](CCC(N)=O)NC(=O)[C@H](CCCNC(=N)N)NC(=O)[C@H](CCC(=O)O)NC(=O)[C@H](CC(C)C)NC(=O)[C@H](Cc1ccc(O)cc1)NC(=O)[C@H](CCCCN)NC(=O)[C@H](CO)NC(=O)[C@H](Cc1ccc(O)cc1)NC(=O)[C@H](CC(=O)O)NC(=O)[C@H](CO)NC(=O)[C@@H](NC(=O)[C@H](Cc1ccccc1)NC(=O)[C@@H](NC(=O)CNC(=O)[C@H](Cc1c[nH]cn1)NC(=O)C1(NC(=O)CCc2c[nH]cn2)CCC1)[C@@H](C)O)[C@@H](C)O)C(=O)N[C@@H](C)C(=O)N[C@@H](Cc1c[nH]c2ccccc12)C(=O)N[C@@H](CC(C)C)C(=O)N[C@@H](CC(C)C)C(=O)N[C@@H](CCCCN)C(=O)N[C@@H](CCCCNC(=O)CC[C@H](NC(=O)COCCOCCNC(=O)CC[C@H](NC(=O)COCCOCCNC(=O)CC[C@H](NC(=O)COCCOCCNC(=O)CC[C@H](NC(=O)CC[C@H](NC(=O)CCCCCCCCCCCCCCCCC(=O)O)C(=O)O)C(=O)O)C(=O)O)C(=O)O)C(=O)O)C(N)=O` [Example 23, N^ε35-[(4S)-4-carboxy-4-[[2-[2-[2-[[(4S)-4-carboxy-4-[[2-[2-[2-[[(4S)-4-carboxy-4-[[2-[2-[2-[[(4S)-4-carboxy-4-[[(4S)-4-carboxy-4-(17-carboxyheptadecanoylamino)butanoyl]amino]butanoyl]amino]ethoxy]ethoxy]acetyl]amino]butanoyl]amino]ethoxy]ethoxy]acetyl]amino]butanoyl]amino]ethoxy]ethoxy]acetyl]amino]butanoyl]-[Imp7,Acb8,His9,Tyr16,Lys18,Arg22,Arg26,Leu33,Lys35]-GLP-1-(7-35)-peptide amide] (Desaminohistidyl-[Ac4c]HGTFTSDYSKYLERQAAREFIAWLLKK([γGlu-AEEA-γGlu-AEEA-γGlu-AEEA-γGlu-γGlu-C18 diacid])-NH2), at human GLP-1 receptor [1], the 50% effective concentration (EC50) came to 0.007 nM. The IC50 on human GLP-1 receptor [2] is 2.3 nM.
On the same counts, the results for `CC[C@H](C)[C@H](NC(=O)[C@H](Cc1ccccc1)NC(=O)[C@H](CCC(=O)O)NC(=O)[C@H](CCCNC(=N)N)NC(=O)[C@H](C)NC(=O)[C@H](C)NC(=O)[C@H](CCC(N)=O)NC(=O)[C@H](CCC(=O)O)NC(=O)[C@H](CCC(=O)O)NC(=O)[C@H](CC(C)C)NC(=O)[C@H](Cc1ccc(O)cc1)NC(=O)[C@H](CCCCN)NC(=O)[C@H](CO)NC(=O)[C@@H](NC(=O)[C@H](CC(=O)O)NC(=O)[C@H](CO)NC(=O)[C@@H](NC(=O)[C@H](Cc1ccccc1)NC(=O)[C@@H](NC(=O)CNC(=O)[C@H](Cc1c[nH]cn1)NC(=O)C(C)(C)NC(=O)CCc1c[nH]cn1)[C@@H](C)O)[C@@H](C)O)C(C)C)C(=O)N[C@@H](C)C(=O)N[C@@H](Cc1c[nH]c2ccccc12)C(=O)N[C@@H](CC(C)C)C(=O)N[C@@H](CC(C)C)C(=O)N[C@@H](CCCCNC(=O)CNC(=O)[C@H](CO)NC(=O)[C@H](CCC(=O)O)NC(=O)CNC(=O)[C@H](CO)NC(=O)CC[C@H](NC(=O)CC[C@H](NC(=O)CCCCCCCCCCCCCCCCCCC(=O)O)C(=O)O)C(=O)O)C(=O)N[C@H](C(N)=O)[C@@H](C)O` [Example 30, N^ε34-[2-[[(2S)-2-[[(2S)-4-carboxy-2-[[2-[[(2S)-2-[[(4S)-4-carboxy-4-[[(4S)-4-carboxy-4-(19-carboxynonadecanoylamino)butanoyl]amino]butanoyl]amino]-3-hydroxypropanoyl]amino]acetyl]amino]butanoyl]amino]-3-hydroxypropanoyl]amino]acetyl]-[Imp7,Aib8,His9,Lys18,Glu22,Arg26,Leu33,Thr35]-GLP-1-(7-35)-peptide amide] (I: Desaminohistidyl-[Aib]HGTFTSDVSKYLEEQAAREFIAWLLKT-NH2 / II: {C20 diacid-γGlu-γGlu}-SGESG; amide I:27-II:C) are 0.005 nM and 0.4 nM.
